Measurements as given in patent US9663528B2, “Substituted 1,2,3,4,6,8,12,12a-octahydro-1,4-methanodipyrido[1,2-a:1',2'-d]pyrazines and methods for treating viral infections” (priority 2012, dated 2017).
Like-named read-outs stand apart in the source and are kept apart here.

How the values were obtained:
[1] = in vitro; details: human
[2] = biological target: PXR (Homo sapiens (Human), UniProt O75469); experiment: Human PXR activation assay (luciferase reporter gene assay, DPX2 cells); format: cell-based; details: human
Experimental: A stably transformed tumor cell line (DPX2) was plated on 96-well microtiter plates. DPX2 cells harbor the human PXR gene (NR112) and a luciferase reporter gene linked to two promoters identified in the human CYP3A4 gene, namely XREM and PXRE. […] The number of viable cells was determined and the reporter gene activity was assessed. Positive control: […]

[3] = biological target: OCT2 (Homo sapiens (Human), UniProt O15244); experiment: OCT2 inhibition assay (14C-TEA uptake, OCT2-transfected MDCKII cells); format: cell-based
Experimental: On assay day, cells were trypsinized and resuspended in Krebs-Henseleit Buffer (KHB), pH 7.4 at […]. Cells were preincubated for 15 min in assay plate before addition of test compound or substrate. Test compounds were serially diluted in DMSO and then spiked (2 μL) into in 0.4 mL KHB buffer containing wild-type or OCT2-transfected cells and incubated for 10 minutes. Assay was initiated with the addition of 0.1 mL of 100 μM ^14C-TEA in KHB buffer (20 μM final concentration after mixing). The concentration of TEA is based on the Km. After 10 minutes of incubation, the assay mixture was quenched with addition of 0.5 mL of ice-cold 1×PBS buffer. Samples were then centrifuged at 1000 rpm for 5 min and supernatants were removed. Wash steps were repeated four times with ice-cold PBS. Finally, the cell pellets were lysed with 0.2N NaOH and let sit at room temperature for at least 30 min to ensure complete lysis. Samples were then counted on liquid scintillation counter and dpm counts were used to perform the following calculations.

[4] = 15 μM, relative to maximum fold induction by 10 or 20 μM rifampicin, DPX2 cells, 24 hours, read-out: % Emax at 15 μM
[5] = MT-4 cells, mock-infected, CC50 nM in MT-4, MT-4 cells, 5 days incubation
[6] = OCT2 mediated uptake of 14C-TEA (20 μM), MDCKII cells, read-out: IC50

Chain of OCT2 (O15244 whole entry): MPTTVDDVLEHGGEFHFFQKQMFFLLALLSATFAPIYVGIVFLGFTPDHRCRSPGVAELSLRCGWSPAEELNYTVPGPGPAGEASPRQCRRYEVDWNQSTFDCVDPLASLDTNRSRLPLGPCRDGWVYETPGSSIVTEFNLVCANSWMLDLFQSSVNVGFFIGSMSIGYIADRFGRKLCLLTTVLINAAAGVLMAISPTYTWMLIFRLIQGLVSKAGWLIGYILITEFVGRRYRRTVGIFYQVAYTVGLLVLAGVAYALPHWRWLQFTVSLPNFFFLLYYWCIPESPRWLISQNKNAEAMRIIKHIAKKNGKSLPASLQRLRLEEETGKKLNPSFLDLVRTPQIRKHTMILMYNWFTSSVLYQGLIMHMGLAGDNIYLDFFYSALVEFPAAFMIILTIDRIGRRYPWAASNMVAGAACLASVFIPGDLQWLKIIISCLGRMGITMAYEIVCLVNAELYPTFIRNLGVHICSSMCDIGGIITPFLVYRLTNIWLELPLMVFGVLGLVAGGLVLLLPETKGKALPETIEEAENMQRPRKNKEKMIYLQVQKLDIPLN
Chain of PXR (O75469 whole entry): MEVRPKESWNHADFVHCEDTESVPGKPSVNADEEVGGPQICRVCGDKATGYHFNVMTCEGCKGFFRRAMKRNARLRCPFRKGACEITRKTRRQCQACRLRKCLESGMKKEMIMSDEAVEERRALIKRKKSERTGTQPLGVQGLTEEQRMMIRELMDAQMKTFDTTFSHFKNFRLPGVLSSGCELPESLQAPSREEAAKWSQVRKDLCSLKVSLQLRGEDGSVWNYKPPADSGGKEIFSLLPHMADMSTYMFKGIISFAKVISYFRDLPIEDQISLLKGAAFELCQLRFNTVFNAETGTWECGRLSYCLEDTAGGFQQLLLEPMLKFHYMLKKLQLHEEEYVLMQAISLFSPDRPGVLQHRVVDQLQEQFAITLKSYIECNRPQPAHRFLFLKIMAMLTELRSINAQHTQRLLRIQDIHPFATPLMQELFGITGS

Compound	CC50 at 5 days ([1]; CC50 nM in MT-4)	Emax at 24 h, 15 µM [2, 4]	IC50 [3]	CC50 at 5 days [1, 5]	IC50 [3, 6]	Emax at 24 h, 15 µM [2]
CC1CC2CC1OC1Cn3cc(C(=O)NCc4ccc(F)cc4F)c(=O)c(O)c3C(=O)N21 (single isomer, unassigned) [Compound 40]	9560 nM	0%	0.204 µM			
O=C(NCc1c(F)cc(F)cc1F)c1cn2c(c(O)c1=O)C(=O)N1[C@H]3C[C@H](C3)[C@H]1C2 (single isomer, unassigned) [Compound 96]		11%		26600 nM	1.36 µM	
O=C(NCc1ccc(F)cc1F)c1cn2c(c(O)c1=O)C(=O)N1C(C2)[C@H]2CC[C@@H]1C2 (stereo in doubt) [Compound 48, (1S,4R,12aS)-N-(2,4-difluorobenzyl)-7-hydroxy-6,8-dioxo-1,2,3,4,6,8,12,12a-octahydro-1,4-methanodipyrido[1,2-a:1′,2′-d]pyrazine-9-carboxamide]	14000 nM	5%	4.91 µM			
C[C@@H]1CCO[C@H]2Cn3cc(C(=O)NC4(c5ccc(F)cc5F)CC4)c(=O)c(O)c3C(=O)N12 [Compound 5, (4R,12aS)-N-(1-(2,4-difluorophenyl)cyclopropyl)-7-hydroxy-4-methyl-6,8-dioxo-3,4,6,8,12,12a-hexahydro-2H-[1,3]oxazino[3,2-d]pyrido[1,2-a]pyrazine-9-carboxamide]		32%		10500 nM	2.23 µM	
C[C@@H](NC(=O)c1cn2c(c(O)c1=O)C(=O)N1[C@@H]3CC[C@@H](C3)O[C@H]1C2)c1ccc(F)cc1F [Compound 11, (2S,5R,13aS)-N—((R)-1-(2,4-difluorophenyl)ethyl)-8-hydroxy-7,9-dioxo-2,3,4,5,7,9,13,13a-octahydro-2,5-methanopyrido[1′,2′:4,5]pyrazino[2,1-b][1,3]oxazepine-10-carboxamide]	10300 nM		10 µM			
C[C@H](NC(=O)c1cn2c(c(O)c1=O)C(=O)N1[C@@H]3CC[C@@H](C3)O[C@H]1C2)c1ccc(F)cc1F [Compound 13, (2S,5R,13aS)-N—((S)-1-(2,4-difluorophenyl)ethyl)-8-hydroxy-7,9-dioxo-2,3,4,5,7,9,13,13a-octahydro-2,5-methanopyrido[1′,2′:4,5]pyrazino[2,1-b][1,3]oxazepine-10-carboxamide]	12700 nM		0.61 µM			
O=C(N[C@@H](c1ccc(F)cc1F)C(F)(F)F)c1cn2c(c(O)c1=O)C(=O)N1C(C2)O[C@H]2CC[C@@H]1C2 (stereo partly drawn) [Compound 36, (2S,5R)-N—((S)-1-(2,4-difluorophenyl)-2,2,2-trifluoroethyl)-8-hydroxy-7,9-dioxo-2,3,4,5,7,9,13,13a-octahydro-2,5-methanopyrido[1′,2′:4,5]pyrazino[2,1-b][1,3]oxazepine-10-carboxamide]	11400 nM		10 µM			3%
C[C@H]1C[C@@H]2C[C@H]1O[C@H]1Cn3cc(C(=O)NCc4ccc(F)cc4F)c(=O)c(O)c3C(=O)N21 [Compound 39, (2R,3S,5R,3aS)-N-(2,4-difluorobenzyl)-8-hydroxy-3-methyl-7,9-dioxo-2,3,4,5,7,9,13,13a-octahydro-2,5-methanopyrido[1′,2′:4,5]pyrazino[2,1-b][1,3]oxazepine-10-carboxamide]	12200 nM	6%	0.358 µM			
O=C(NCc1c(F)cc(F)cc1F)c1cn2c(c(O)c1=O)C(=O)N1[C@@H]3CC[C@@H](C3)O[C@H]1C2 [Compound 45, (13aS)-8-hydroxy-7,9-dioxo-N-(2,4,6-trifluorobenzyl)-2,3,4,5,7,9,13,13a-octahydro-2,5-methanopyrido[1′,2′:4,5]pyrazino[2,1-b][1,3]oxazepine-10-carboxamide]		19%		15800 nM	0.137 µM	
O=C(NCc1ccc(F)cc1Cl)c1cn2c(c(O)c1=O)C(=O)N1[C@H]3CC[C@H](C3)O[C@@H]1C2 [Compound 63, (2R,5S,13aR)-N-(2-chloro-4-fluorobenzyl)-8-hydroxy-7,9-dioxo-2,3,4,5,7,9,13,13a-octahydro-2,5-methanopyrido[1′,2′:4,5]pyrazino[2,1-b][,3]oxazepine-10-carboxamide]	3160 nM	13%			0.042 µM	
O=C(NCc1cc(F)c(F)cc1F)c1cn2c(c(O)c1=O)C(=O)N1[C@H]3CC[C@H](C3)O[C@@H]1C2 [Compound 64, (2R,5S,13aR)-8-hydroxy-7,9-dioxo-N-(2,4,5-trifluorobenzyl)-2,3,4,5,7,9,13,13a-octahydro-2,5-methanopyrido[1′,2′:4,5]pyrazino[2,1-b][1,3]oxazepine-10-carboxamide]	3330 nM				0.094 µM	8%
O=C(NCc1c(F)cc(F)cc1F)c1cn2c(c(O)c1=O)C(=O)N1[C@@H]3C[C@@H](C[C@H]3F)[C@@H]1C2 [Compound 82, (1S,3R,4R,12aR)-3-fluoro-7-hydroxy-6,8-dioxo-N-(2,4,6-trifluorobenzyl)-1,2,3,4,6,8,12,12a-octahydro-1,4-methanodipyrido[1,2-a:1′,2′-d]pyrazine-9-carboxamide]	30400 nM		10 µM			1%
C[C@H]1C[C@@H]2C[C@H]1N1C(=O)c3c(O)c(=O)c(C(=O)NCc4c(F)cc(F)cc4F)cn3C[C@@H]21 [Compound 99, (1R,3S,4R,12aR)-7-hydroxy-3-methyl-6,8-dioxo-N-(2,4,6-trifluorobenzyl)-1,2,3,4,6,8,12,12a-octahydro-1,4-methanodipyrido[1,2-a:1′,2′-d]pyrazine-9-carboxamide]	8480 nM		1.51 µM			17%
O=C(NCc1ccc(F)cc1F)c1cn2c(c(O)c1=O)C(=O)N1[C@H]3CC[C@H](CC3)[C@H]1C2 [Compound 100, (1R,4R,12aS)-N-(2,4-difluorobenzyl)-7-hydroxy-6,8-dioxo-1,2,3,4,6,8,12,12a-octahydro-1,4-ethanodipyrido[1,2-a:1′,2′-d]pyrazine-9-carboxamide]		45%		11600 nM	0.45 µM	
